The values that follow come from patent US11801272B2, “Bacillus strains improving health and performance of production animals” (Novozymes A/S, priority 2015, dated 2023).

Converted amounts (≈) assume the structure as drawn. Where two headings read alike, the source gives them in different places. Where a SMILES comes first, the peptide text is derived from it. Bridges are numbered along the chain shown (N, C = ends). [ ]: non-standard residue; d: D form. The star is where a group is joined. Ileψ(thiazoline)Cys = CC[C@H](C)[C@H](N)C1=N[C@H](C(=O)*)CS1; dOrn = NCCC[C@@H](N)C(=O)O

Assay [1] deals with B. subtilis DSM 29871. The class given is cell-based. As to conditions: Bacillus subtilis.
The subject of assay [2] is B. amyloliquefaciens DSM 29869. The class given is cell-based. The following applies: Bacillus amyloliquefaciens, DSM29869, 37° C., 20-24 h.
Assay [3] deals with B. subtilis DSM 29870. The class given is cell-based. As to conditions: Bacillus subtilis.
Assay [4] relates to Clostridium perfringens. The class given is in vivo, broiler chickens Cobb×Cobb. As to conditions: infected, bacitracin 50 ppm.
Setting [5] is: Trial 1, DSM 29870 1.10^9 CFU/kg of feed.
The mark [6] stands for this setting: Trial 3, DSM 29870 5.10^8 CFU/kg of feed.

For the compound `CN[C@H](CC(C)C)C(=O)N[C@H]1C(=O)N[C@@H](CC(N)=O)C(=O)N[C@H]2C(=O)N[C@H]3C(=O)N[C@H](C(=O)N[C@H](C(=O)O)c4cc(O)cc(O)c4-c4cc3ccc4O)[C@H](O)c3ccc(c(Cl)c3)Oc3cc2cc(c3O[C@@H]2O[C@H](CO)[C@@H](O)[C@H](O)[C@H]2O[C@H]2C[C@](C)(N)[C@H](O)[C@H](C)O2)Oc2ccc(cc2Cl)[C@H]1O` [Vancomycin], the minimal inhibitory concentration (MIC) in assay [1] (DSM29871, read-out: MIC 1) is 0.25 µg/mL (≈ 0.173 µM); in assay [1] (DSM29871, read-out: MIC 2) it was 0.25 µg/mL (≈ 0.173 µM); in assay [1] (DSM29871, read-out: MIC 3), 0.25 µg/mL (≈ 0.173 µM); in assay [2] (biological replicate 1, read-out: MIC 1), 0.25 µg/mL (≈ 0.173 µM); in assay [2] (biological replicate 2, read-out: MIC 2), 0.25 µg/mL (≈ 0.173 µM); in assay [2] (biological replicate 3, read-out: MIC 3), 0.25 µg/mL (≈ 0.173 µM). In addition, the MIC is 0.25 µg/mL (≈ 0.173 µM) in assay [3] (DSM29870, read-out: MIC 1); 0.25 µg/mL (≈ 0.173 µM) in assay [3] (DSM29870, read-out: MIC 2); 0.25 µg/mL (≈ 0.173 µM) in assay [3] (DSM29870, read-out: MIC 3).

For the compound `CC[C@H](C)[C@H](N)C1=N[C@H](C(=O)N[C@@H](CC(C)C)C(=O)N[C@H](CCC(=O)O)C(=O)N[C@H](C(=O)N[C@H]2CCCCNC(=O)[C@H](CC(N)=O)NC(=O)[C@@H](CC(=O)O)NC(=O)[C@H](Cc3cnc[nH]3)NC(=O)[C@@H](Cc3ccccc3)NC(=O)[C@H]([C@@H](C)CC)NC(=O)[C@@H](CCCN)NC2=O)[C@@H](C)CC)CS1` [bacitracin] ({Ileψ(thiazoline)Cys}-L[dE]IK[dOrn]I[dF]H[dD]N; lactam 4-C), the “Dead birds with necrotic enteritis lesions (d1-d28)” value in assay [4] (setting [5]) is 1.6b %; in assay [4] (Trial 2, DSM 29870 5.10^8 CFU/kg of feed), 6.3c %; in assay [4] (setting [6]), 4.7bc %. For the same compound, the “Total mortality (d1-d28)” value stood at 5.0b % in assay [4] (setting [5]) and 15.0a % in assay [4] (setting [6]).
